Assay results taken from patent US20240316015A1, “COMPOSITION AND METHOD FOR TREATING TUMORS” (NATURAL MEDICINE INSTITUTE OF ZHEJIANG YANGSHENGTANG CO., …, priority 2021, published 2024).

Columns and labels:
MC38 = test: scratch test of MC38; format: cell-based; settings: concentrations such as 5 μM, 10 μM or 20 μM; FIGS. 3-7
Procedure: Different concentrations of PDE4 inhibitors, such as 5 μM, 10 μM, or 20 μM, were administered to verify the inhibitory effect on metastasis in the scratch test of MC38.

Hematologic tumor cells = test: subcutaneous tumor model, hematologic tumor cells; format: in vivo, C57 mice; settings: in combination with anti-PD-L1 antibody; e.g. 4 mg/kg + 2 mg/kg i.p. every 3 days, 6 doses
Procedure: (§1) (1) Tumorigenesis in mice. 6-8 week-old C57 female mice were selected. Hematologic tumor cells were cultured in vitro to logarithmic phase, collected, and resuspended in a PBS buffer solution. The collected cells were subcutaneously injected into the leg of mice with 5×10^5 cells per mouse to establish a subcutaneous tumor model. (2) After tumorigenesis, the mice were divided into four experimental groups including a blank control, a PDE4 inhibitor group, an immune checkpoint inhibitor group, and a PDE4 inhibitor+immune checkpoint inhibitor group. The mice in the PDE4 inhibitor+immune checkpoint inhibitor group were sequentially intraperitoneally injected with e.g. 4 mg/kg of PDE4 inhibitor and e.g. 2 mg/kg of immune checkpoint inhibitor (e.g., an PD-L1 antibody) every 3 days, with 6 doses in total, while the PDE4 inhibitor group and the immune checkpoint inhibitor group were separately injected with the same dose of PDE4 inhibitor and immune checkpoint inhibitor in the same manner, and the blank control was injected with the same dose of normal saline. […] The mice were detected for weight and tumor size and recorded: tumor volume (mm^3)=length (L)×width (W)^2/2, and then subject to Luciferin fluorescence imaging of tumor. […] 10 min after injection, the mice were subject to Luciferin fluorescence imaging using a Small Animal Live Imaging System (model: IVIS Lumina XRMS Series III).

MC38 cells [1] = test: tumor metastasis model, MC38 cells injected into the spleen of mice; format: in vivo, C57 mice; settings: 4 mg/kg intraperitoneally every 3 days, 6 doses; FIGS. 1A and 1B
Procedure: In use, DMSO was used as the solvent for Oxaliplatin and Roflumilast. (1) Tumorigenesis in mice. 6-8 week-old C57 female mice were selected. MC38 cells were cultured in vitro to logarithmic phase, collected, and resuspended in a PBS buffer solution. The collected cells were injected into the spleen of mice through surgery with 5×10^5 MC38 cells per mouse to establish a tumor metastasis model. […] The day of the first injection was taken as Day 1. Then, the mice were detected for weight and recorded, and subject to Luciferin fluorescence imaging. That is, each mouse was intraperitoneally injected with 100 μL of 1 mg/mL aqueous solution of potassium D-Luciferin as formulated. 10 min after injection, the mice were subject to Luciferin fluorescence imaging using a Small Animal […] Imaging System (model: IVIS Lumina XRMS Series III).

Lymphoma cells = test: subcutaneous tumor model, lymphoma cells; format: in vivo, C57 mice; settings: in combination with anti-PD-L1 antibody; e.g. 4 mg/kg + 2 mg/kg i.p. every 3 days, 6 doses
Procedure: as §1, with “Lymphoma” for “Hematologic tumor”

Melanoma cells = test: subcutaneous tumor model, melanoma cells; format: in vivo, C57 mice; settings: e.g. 4 mg/kg + 2 mg/kg i.p. every 3 days, 6 doses
Procedure: (§2) (1) Tumorigenesis in mice. 6-8 week-old C57 female mice were selected. Melanoma cells were cultured in vitro to logarithmic phase, collected, and resuspended in a PBS buffer solution. The collected cells were subcutaneously injected into the leg of mice with 5×10^5 cells per mouse to establish a subcutaneous tumor model. (2) After tumorigenesis, the mice were divided into four experimental groups including a blank control, a PDE4 inhibitor group, an immune checkpoint inhibitor group, and a PDE4 inhibitor+immune checkpoint inhibitor group. […] The mice were detected for weight and tumor size and recorded: tumor volume (mm^3)=length (L)×width (W)^2/2, and then subject to Luciferin fluorescence imaging of tumor. […] 10 min after injection, the mice were subject to Luciferin fluorescence imaging using a Small Animal Live Imaging System (model: IVIS Lumina XRMS Series III). […] The mice were detected for weight and tumor size and recorded: tumor volume (mm^3)=length (L)×width (W)^2/2, and then subject to Luciferin fluorescence imaging of tumor. […] 10 min after injection, the mice were subject to Luciferin fluorescence imaging using a Small Animal Live Imaging System (model: IVIS Lumina XRMS Series III).

Breast cancer cells = test: subcutaneous tumor model, breast cancer cells; format: in vivo, C57 mice; settings: e.g. 4 mg/kg + 2 mg/kg i.p. every 3 days, 6 doses
Procedure: as §2, with “Breast cancer” for “Melanoma”

breast tumor cells 4T1 = test: mouse model of lung metastasis of breast cancer; format: in vivo; settings: 4T1 lung metastasis model; FIG. 8
MC38 cells [2] = test: subcutaneous tumor model, colon cancer cells such as MC38; format: in vivo, C57 mice; settings: e.g. 4 mg/kg + 2 mg/kg i.p. every 3 days, 6 doses
Procedure: (1) Tumorigenesis in mice. 6-8 week-old C57 female mice were selected. Colon cancer cells, such as MC38 cells, were cultured in vitro to logarithmic phase, collected, and resuspended in a PBS buffer solution. The collected cells were subcutaneously injected into the leg of mice with 5×10^5 cells per mice to establish a subcutaneous tumor model.
(2) After tumorigenesis, the mice were divided into four experimental groups including a blank control, a PDE4 inhibitor group, an immune checkpoint inhibitor group, and a PDE4 inhibitor+immune checkpoint inhibitor group. The mice in the PDE4 inhibitor+immune checkpoint inhibitor group were sequentially intraperitoneally injected with, e.g., 4 mg/kg of PDE4 inhibitor and, e.g., 2 mg/kg of immune checkpoint inhibitor (e.g., a PD-L1 antibody) every 3 days, with 6 doses in total, while the PDE4 inhibitor group and the immune checkpoint inhibitor group were separately injected with the same dose of PDE4 inhibitor and the immune checkpoint inhibitor in the same manner, and the blank control was injected with the same dose of normal saline. The day of the first injection was taken as day 1. The mice were detected for the weight and tumor size and recorded: the tumor volume (mm^3)=length (L)×width (W)^2/2, and then subject to Luciferin fluorescence imaging of tumor. That is, each mouse was intraperitoneally injected with 100 μL of 1 mg/mL aqueous solution of D-Luciferin potassium as formulated. 10 min after injection, the mice were subject to Luciferin fluorescence imaging using a Small Animal Liver Imaging System (model: IVIS Lumina XRMS Series III).
(1) Tumorigenesis in mice. 6-8 week-old C57 female mice were selected. […]

[3] = in combination with anti-PD-1 antibody
[4] = in combination with anti-PD-L1 antibody

O=C(O)Cc1ccc(Cc2cc(-c3cccc(Cl)c3)nc(C(F)(F)F)c2)cc1 [BPN14770, Benzeneacetic acid, 4-[[2-(3-chlorophenyl)-6-(trifluoromethyl)-4-pyridinyl]methyl]-]
inhibitory effect on metastasis in the scratch test (MC38): inhibiting metastasis

OCCN(CCO)c1nc(N2CCCCC2)c2nc(N(CCO)CCO)nc(N3CCCCC3)c2n1 [Dipyridamole]
inhibitory effect on metastasis in the scratch test (MC38): inhibiting metastasis

COc1cccc(Nc2c(C(N)=O)cnc3c(C)cc(S(=O)(=O)c4cccc(C(=O)N(C)C)c4)cc23)c1 [GSK256066]
inhibitory effect on metastasis in the scratch test (MC38): inhibiting the results of metastasis

O=C(Nc1c(Cl)cncc1Cl)c1ccc(OC(F)F)c(OCC2CC2)c1 [Roflumilast]
inhibition of tumor growth (Hematologic tumor cells): Synergistically Inhibiting Growth of Hematologic Tumor | inhibition of tumor metastasis (Luciferin fluorescence imaging) (MC38 cells [1]): Capable of Inhibiting Tumor Metastasis | inhibition of tumor growth (Lymphoma cells): Synergistically Inhibiting Growth of Lymphoma | inhibition of tumor growth (Melanoma cells; [3]): Synergistically Inhibiting Growth of Melanoma | inhibition of tumor growth (Melanoma cells; [4]): Synergistically Inhibiting Growth Of Melanoma | inhibition of tumor growth (Breast cancer cells; [3]): Synergistically Inhibiting Growth of Breast Cancer | inhibition of tumor growth (Breast cancer cells; [4]): Synergistically Inhibiting Growth of Breast Cancer | inhibitory effect on tumor metastasis (breast tumor cells 4T1): significant inhibitory effect on tumor metastasis | inhibition of tumor growth (MC38 cells [2]; in combination with anti-CTLA-4 antibody): Synergistically Inhibiting Growth of Colon Cancer | inhibition of tumor growth (MC38 cells [2]; in combination with anti-LAG-3 antibody): Synergistically Inhibiting Growth of Colon Cancer | inhibition of tumor growth (MC38 cells [2]; [3]): Synergistically Inhibiting Growth of Colon Cancer | inhibitory effect on metastasis in the scratch test (MC38): inhibiting metastasis

COc1ccc(C2CNC(=O)C2)cc1OC1CCCC1 (stereo not shown) [Rolipram, 4-(3-cyclopentyloxy-4-methoxyphenyl)pyrrolidin-2-one]
inhibitory effect on metastasis in the scratch test (MC38): inhibiting metastasis
